In patent US7632952B2, “Benzothiazoles and the use thereof as medicaments” (Aventis Pharma S.A., priority 2004, dated 2009):
Counter-ions that a name gives are not always drawn.

Experiments:
CDK4/cyclin D1 = CDK4/cyclin D1 (Homo sapiens, UniProt P11802); experiment: CDK4/cyclin D1 Flashplate test in 96-well format; assay type: biochemical
Outline: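 CDK4-HA/cyclin D1-(His)6 complex from coinfected Sf9 cells, 25 nM final, phosphorylating 1.8 μM biotinylated pRb peptide in HEPES pH 7.5 with MgCl2, DTT and [γ-33P]ATP at 30 °C. 33P incorporation captured on streptavidin Flashplates and read by scintillation counting; IC50 from seven-point inhibitor dilutions.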

CDK2/cyclin E = CDK2/cyclin E (Homo sapiens, UniProt P24941); experiment: CDK2/cyclin E Flashplate test in 96-well format; assay type: biochemical; details: read-out: CDK2 IC50
Outline: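 CDK2/cyclin E-(His)6 from baculovirus-coinfected Sf21 cells was IMAC-purified. Kinase reaction used biotinylated pRb peptide (10 μM final), [γ-33P]ATP in HEPES pH 7.5 with Mg2+ and DTT, at 30 °C in streptavidin Flashplates. 33P incorporation was scintillation counted and IC50 determined.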

HeLa = HeLa proliferation; assay type: cell-based; details: Homo sapiens, read-out: HeLa proliferation EC50 (nM) DG

CDK4/cyclin D1, sequence (P11802 whole entry): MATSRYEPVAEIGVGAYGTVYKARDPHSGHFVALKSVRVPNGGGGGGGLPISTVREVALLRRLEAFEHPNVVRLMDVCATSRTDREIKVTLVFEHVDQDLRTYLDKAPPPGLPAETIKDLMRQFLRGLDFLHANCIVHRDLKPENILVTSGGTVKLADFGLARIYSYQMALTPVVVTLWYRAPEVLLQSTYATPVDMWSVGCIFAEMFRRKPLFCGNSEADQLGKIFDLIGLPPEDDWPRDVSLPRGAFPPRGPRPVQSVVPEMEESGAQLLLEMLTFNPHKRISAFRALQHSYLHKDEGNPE
CDK4/cyclin D1, sequence (P24385 whole entry partner): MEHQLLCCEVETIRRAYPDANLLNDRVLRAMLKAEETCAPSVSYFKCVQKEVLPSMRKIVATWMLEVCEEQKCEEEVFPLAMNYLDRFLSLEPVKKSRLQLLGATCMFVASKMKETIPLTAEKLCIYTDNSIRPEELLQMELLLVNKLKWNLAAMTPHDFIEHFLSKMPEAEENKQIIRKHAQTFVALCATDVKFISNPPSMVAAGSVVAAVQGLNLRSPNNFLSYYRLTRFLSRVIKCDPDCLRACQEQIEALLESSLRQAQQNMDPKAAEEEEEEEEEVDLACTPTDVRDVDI

Row | SMILES | IC50 (CDK4/cyclin D1) [nM] | IC50 (CDK2/cyclin E) [nM] | EC50 (HeLa) [nM]
1 | O=C(Nc1nc2ccc(OS(=O)(=O)c3ccc(-c4ccccn4)s3)cc2s1)C1CC1 [Example 85, 5-pyridin-2-ylthiophene-2-sulfonic acid 2-(cyclopropanecarbonylamino)benzothiazol-6-yl ester] | > 10000 | > 10000 | > 12500
2 | CC(=O)Nc1nc2ccc(OS(=O)(=O)c3ccc(NCCN(C(C)C)C(C)C)cc3)cc2s1 [Example 43, 4-(2-Diisopropylaminoethylamino)benzenesulfonic acid 2-acetylaminobenzothiazol-6-yl ester] | 119 | 49 | 36
3 | CC(C)(CNc1ccc(S(=O)(=O)Oc2ccc3nc(NC(=O)C4CC4)sc3c2)cc1)OP(=O)(O)O [Example 89, 4-(2-methyl-2-phosphonooxypropylamino)benzene-sulfonic acid 2-(cyclopropanecarbonylamino)benzothiazol-6-yl ester] | 3320 | 105 | 2510
4 | CC(C)(O)CNc1ccc(S(=O)(=O)Oc2ccc3nc(NC(=O)C4CC4)sc3c2)cc1 [Example 11, 4-(2-hydroxy-2-methylpropylamino)benzene-sulfonic 2-(cyclopropanecarbonylamino)benzothiazol-6-yl ester] | 924 | 19 | 80
5 | O=C(Nc1nc2ccc(OS(=O)(=O)c3cccs3)cc2s1)C1CC1 [Example 33h, Thiophene-2-sulfonic acid 2-(cyclopro-panecarbonylamino)benzothiazol-6-yl ester] | 358 | 6980 | 4430
6 | O=C(Nc1nc2ccc(OS(=O)(=O)c3ccc(NCCCn4ccnc4)cc3)cc2s1)C1CC1 [Example 9, 4-(3-imidazol-1-ylpropylamino)benzenesulfonic 2-(cyclopropanecarbonylamino)benzothiazol-6-yl ester] | 931 | 68 | 611
7 | CC(=O)Nc1nc2ccc(OS(=O)(=O)c3ccc(NCCNC(C)C)cc3)cc2s1 [Example 65, 4-(2-isopropylaminoethylamino)benzenesulfonic acid 2-acetylaminobenzothiazol-6-yl ester] | 170 | 107 | 122
8 | CC(C)C(=O)Nc1nc2ccc(OS(=O)(=O)c3ccc(NCCN(C(C)C)C(C)C)cc3)cc2s1 [Example 55, 4-(2-diisopropylaminoethylamino)benzenesulfonic acid 2-isobutyrylaminobenzothiazol-6-yl ester hydrochloride] | 221 | 73 | 43
9 | CC(C)N(CCNc1ccc(S(=O)(=O)Oc2ccc3nc(NC(=O)C4(N)CCCC4)sc3c2)cc1)C(C)C [Example 41, 4-(2-diisopropylaminoethylamino)benzenesulfonic acid 2-[(1-aminocyclopentanecarbonyl)amino]benzothiazol-6-yl ester] | > 10000 | > 10000 | 8390
10 | CC(C)(O)CNc1ccc(S(=O)(=O)Oc2ccc3nc(NC(=O)CCc4cccnc4)sc3c2)cc1 [Example 63, 4-(2-hydroxy-2-methylpropylamino)benzene-sulfonic acid 2-(3-pyrid-3-ylpropionylamino)benzothiazol-6-yl ester hydro-chloride] | 1390 | 79 | 8370
11 | CCC(=O)Nc1nc2ccc(OS(=O)(=O)c3ccc(NCCN(C(C)C)C(C)C)cc3)cc2s1 [Example 57, 4-(2-diisopropylaminoethylamino)benzenesulfonic acid 2-propionylaminobenzothiazol-6-yl ester hydrochloride] | 125 | 40 | 79
12 | COCC(=O)Nc1nc2ccc(OS(=O)(=O)c3ccc(NCCN(C(C)C)C(C)C)cc3)cc2s1 [Example 44, 4-(2-Diisopropylaminoethylamino)benzenesulfonic acid 2-(2-methoxyacetylamino)benzothiazol-6-yl ester] | 313 | 108 | 76
13 | CC(C)NCCNc1ccc(S(=O)(=O)Oc2ccc3nc(NC(=O)C4CC4)sc3c2)cc1 [Example 53, 4-(2-isopropylaminoethylamino)benzenesulfonic 2-(cyclopropanecarbonylamino)benzothiazol-6-yl ester hydrochloride] | 205 | 25 | 16
14 | CC(C)N(CCNc1ccc(S(=O)(=O)Oc2ccc3nc(NC(=O)C4CC4)sc3c2)cc1)C(C)C [Example 12, 4-(2-diisopropylaminoethylamino)benzenesulfonic 2-(cyclopropanecarbonylamino)benzothiazol-6-yl ester] | 205 | 25 | 16
15 | CC(C)N(CCNc1ccc(S(=O)(=O)Oc2ccc3nc(NC(=O)C4CCC4)sc3c2)cc1)C(C)C [Example 60, 4-(2-diisopropylaminoethylamino)benzenesulfonic acid 2-(cyclobutanecarbonylamino)benzothiazol-6-yl ester hydrochloride] | 265 | 105 | 199
16 | CC(C)N(CCNc1ccc(S(=O)(=O)Oc2ccc3nc(NC(=O)C4CCCC4)sc3c2)cc1)C(C)C [Example 45, 4-(2-Diisopropylaminoethylamino)benzenesulfonic acid 2-(cyclo-pentanecarbonylamino)benzothiazol-6-yl ester] | 341 | 136 | 289
17 | CNc1ccc(S(=O)(=O)Oc2ccc3nc(NC(=O)C4CC4)sc3c2)cc1 [Example 10, 4-methylaminobenzenesulfonic 2-(cyclopropane-carbonylamino)benzothiazol-6-yl ester] | 944 | 92 | 807
